Measured values as given in PubChem BioAssay AID248 (DTP/NCI, 2004).
Inconclusive results and toxic doses are left out. No stated cut-off is given here; in the data, active means T/C of 150% or more; inactive means T/C below 125%.

System: L1210 leukemia ip in BDF1 mice, survival T/C
Experiment: NCI In Vivo Anticancer Drug Screen. Data for tumor model L1210 Leukemia (intraperitoneal) in B6D2F1 (BDF1) mice
Settings: endpoint: mean survival time, higher = longer survival
In short: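 Mice bearing the transplanted tumor received compound or vehicle. Survival of the treated group was divided by that of the vehicle-treated control group to give the ratio.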

[1] = dose: 100.0 mg/kg/injection, schedule: Q01DX001 (ip), vehicle: saline
[2] = dose: 200.0 mg/kg/injection, schedule: Q01DX001 (ip), vehicle: saline
[3] = dose: 400.0 mg/kg/injection, schedule: Q01DX001 (ip), vehicle: saline
[4] = dose: 100.0 mg/kg/injection, schedule: Q01DX009 (ip), vehicle: saline
[5] = dose: 100.0 mg/kg/injection, schedule: Q04DX002 (ip), vehicle: Klucel (hydroxypropylcellulose) (HPC)
[6] = dose: 100.0 mg/kg/injection, schedule: Q04DX003 (ip), vehicle: saline with Tween-80
[7] = dose: 200.0 mg/kg/injection, schedule: Q04DX003 (ip), vehicle: saline with Tween-80
[8] = dose: 400.0 mg/kg/injection, schedule: Q04DX003 (ip), vehicle: saline with Tween-80
[9] = dose: 100.0 mg/kg/injection, schedule: Q01DX009 (ip), vehicle: Klucel (hydroxypropylcellulose) (HPC)
[10] = dose: 200.0 mg/kg/injection, schedule: Q04DX002 (ip), vehicle: Klucel (hydroxypropylcellulose) (HPC)
[11] = dose: 400.0 mg/kg/injection, schedule: Q04DX002 (ip), vehicle: Klucel (hydroxypropylcellulose) (HPC)
[12] = dose: 100.0 mg/kg/injection, schedule: Q04DX003 (ip), vehicle: Klucel (hydroxypropylcellulose) (HPC)
[13] = dose: 200.0 mg/kg/injection, schedule: Q04DX003 (ip), vehicle: Klucel (hydroxypropylcellulose) (HPC)
[14] = dose: 400.0 mg/kg/injection, schedule: Q04DX003 (ip), vehicle: Klucel (hydroxypropylcellulose) (HPC)
[15] = dose: 100.0 mg/kg/injection, schedule: Q01DX009 (ip), vehicle: saline with Tween-80
[16] = dose: 200.0 mg/kg/injection, schedule: Q01DX009 (ip), vehicle: saline with Tween-80
[17] = dose: 400.0 mg/kg/injection, schedule: Q01DX009 (ip), vehicle: saline with Tween-80

Measured: T/C

CCCCCCN(CCCCCC)CCCCCC
inactive: dose: 8.0 mg/kg/injection, schedule: Q01DX015 (ip), vehicle: carboxymethylcellulose (CMC) 97 % of control | dose: 16.0 mg/kg/injection, schedule: Q01DX015 (ip), vehicle: carboxymethylcellulose (CMC) 100 % of control | dose: 32.0 mg/kg/injection, schedule: Q01DX015 (ip), vehicle: carboxymethylcellulose (CMC) 102 % of control | dose: 64.0 mg/kg/injection, schedule: Q01DX015 (ip), vehicle: carboxymethylcellulose (CMC) 96 % of control | [1] 97 % of control | dose: 128.0 mg/kg/injection, schedule: Q01DX015 (ip), vehicle: carboxymethylcellulose (CMC) 97 % of control | [2] 106 % of control | [3] 100 % of control

C[n+]1csc(=S)[nH]1
inactive: [4] 98 % of control

O=C(O)C1CCC2(CCCCC2)CC1
inactive: dose: 25.0 mg/kg/injection, schedule: Q01DX009 (ip), vehicle: water 101 % of control | dose: 50.0 mg/kg/injection, schedule: Q01DX009 (ip), vehicle: water 93 % of control | dose: 100.0 mg/kg/injection, schedule: Q01DX009 (ip), vehicle: water 98 % of control | dose: 200.0 mg/kg/injection, schedule: Q01DX009 (ip), vehicle: water 92 % of control

CCOC(=O)N1Cc2cc3ccccc3nc2C1C1OC(CC)(C(=O)OCC)C1=O (stereo unspecified)
inactive: dose: 10.0 mg/kg/injection, schedule: Q07DX002 (ip), vehicle: alcohol 96 % of control | dose: 20.0 mg/kg/injection, schedule: Q07DX002 (ip), vehicle: alcohol 105 % of control | dose: 40.0 mg/kg/injection, schedule: Q07DX002 (ip), vehicle: alcohol 89 % of control | dose: 80.0 mg/kg/injection, schedule: Q07DX002 (ip), vehicle: alcohol 105 % of control

O=C(/C=C/c1ccncc1)Nc1ccccc1
inactive: dose: 25.0 mg/kg/injection, schedule: Q04DX002 (ip), vehicle: Klucel (hydroxypropylcellulose) (HPC) 117 % of control | dose: 50.0 mg/kg/injection, schedule: Q04DX002 (ip), vehicle: Klucel (hydroxypropylcellulose) (HPC) 98 % of control | [5] 98 % of control

NNC(=O)c1cc2c3ccccc3ncc2c2ccccc12
inactive: [6] 86 % of control | [7] 94 % of control | [8] 108 % of control

CCCCCCCCCCCCCC(CCC)CCC
inactive: [1] 94 % of control | [2] 96 % of control | [3] 94 % of control

O=C(Cc1ccccc1)NC1=C(NCc2ccccc2)C(=O)c2ccccc2C1=O
inactive: [6] 105 % of control | [7] 98 % of control | [8] 96 % of control

C=C[C@H]1CN2CC[C@H]1C[C@@H]2[C@@H](O)c1ccnc2ccccc12
inactive: [9] 101 % of control | [5] 103 % of control | dose: 200.0 mg/kg/injection, schedule: Q01DX009 (ip), vehicle: Klucel (hydroxypropylcellulose) (HPC) 93 % of control | [10] 103 % of control | dose: 400.0 mg/kg/injection, schedule: Q01DX009 (ip), vehicle: Klucel (hydroxypropylcellulose) (HPC) 93 % of control | [11] 96 % of control

O=C(c1ccc(N2CC=C(c3ccccc3)CC2)cc1)C1CC1
inactive: [5] 92 % of control | [10] 95 % of control | [11] 89 % of control

CNc1ccccc1C(N)=S
inactive: dose: 50.0 mg/kg/injection, schedule: Q01DX009 (ip), vehicle: saline 111 % of control | dose: 50.0 mg/kg/injection, schedule: Q04DX003 (ip), vehicle: saline 106 % of control | [4] 97 % of control | dose: 100.0 mg/kg/injection, schedule: Q04DX003 (ip), vehicle: saline 105 % of control | dose: 200.0 mg/kg/injection, schedule: Q01DX009 (ip), vehicle: saline 101 % of control | dose: 200.0 mg/kg/injection, schedule: Q04DX003 (ip), vehicle: saline 105 % of control

Cc1ncc(C#N)c(C)n1
inactive: [1] 107 % of control | [2] 102 % of control | [3] 107 % of control

Cc1ccc(Cl)cc1NC(=O)Oc1ccc(Cl)cc1C
inactive: dose: 12.5 mg/kg/injection, schedule: Q01DX009 (ip), vehicle: Klucel (hydroxypropylcellulose) (HPC) 95 % of control | dose: 25.0 mg/kg/injection, schedule: Q01DX009 (ip), vehicle: Klucel (hydroxypropylcellulose) (HPC) 95 % of control | dose: 50.0 mg/kg/injection, schedule: Q01DX009 (ip), vehicle: Klucel (hydroxypropylcellulose) (HPC) 97 % of control | [9] 96 % of control

Cc1cc(Br)c(O)c(Br)c1
inactive: dose: 75.0 mg/kg/injection, schedule: Q01DX001 (ip), vehicle: Klucel (hydroxypropylcellulose) (HPC) 99 % of control | dose: 150.0 mg/kg/injection, schedule: Q01DX001 (ip), vehicle: Klucel (hydroxypropylcellulose) (HPC) 100 % of control | dose: 300.0 mg/kg/injection, schedule: Q01DX001 (ip), vehicle: Klucel (hydroxypropylcellulose) (HPC) 95 % of control

CCCCCCNP(=O)(OCC)OCC
inactive: dose: 50.0 mg/kg/injection, schedule: Q01DX001 (ip), vehicle: carboxymethylcellulose (CMC) 95 % of control | dose: 100.0 mg/kg/injection, schedule: Q01DX001 (ip), vehicle: carboxymethylcellulose (CMC) 93 % of control | dose: 200.0 mg/kg/injection, schedule: Q01DX001 (ip), vehicle: carboxymethylcellulose (CMC) 101 % of control

CC(=O)CC(=O)Nc1ccc(C)cc1C
inactive: [12] 102 % of control | [13] 98 % of control | [14] 115 % of control

CC(=O)Nc1ccc(/C=N/NC(=O)c2cccc3ccccc23)cc1
inactive: [1] 86 % of control

O=C(Sc1ccccc1-n1cccc1)c1ccccc1
inactive: [15] 109 % of control | [16] 100 % of control | [17] 102 % of control

O=C(Nc1ccc(Cl)c(Cl)c1)OC1C=CS(=O)(=O)C1 (stereo unspecified)
inactive: [12] 104 % of control | [13] 104 % of control | [14] 96 % of control

O=c1cc[nH]c2ccccc12
inactive: dose: 100.0 mg/kg/injection, schedule: Q01DX001 (ip), vehicle: saline with Tween-80 96 % of control | dose: 200.0 mg/kg/injection, schedule: Q01DX001 (ip), vehicle: saline with Tween-80 97 % of control | dose: 400.0 mg/kg/injection, schedule: Q01DX001 (ip), vehicle: saline with Tween-80 103 % of control

CCO/C=C/c1ccccc1
inactive: [15] 101 % of control | [6] 93 % of control | [16] 96 % of control | [7] 98 % of control | [17] 90 % of control

ClCCCN(CCCCl)c1ccc(C=Nc2cccc(Cl)c2)c(Cl)c1
inactive: [12] 101 % of control | [13] 102 % of control | [14] 95 % of control

CCCCc1ccc(N=Cc2ccc(C=Nc3ccc(CCCC)cc3)cc2)cc1
inactive: [15] 92 % of control | [16] 97 % of control | [17] 94 % of control
